Results: EP3250188B1, “PHARMACEUTICAL COMPOSITION COMPRISING APREPITANT AND METHOD FOR THE PREPARATION THEREOF” (Pharmathen S.A., priority 2015, dated 2016)
Converted amounts (≈) assume the structure as drawn. Like-named read-outs stand apart in the source and are kept apart here.

How the values were obtained:
[1] = Solubility study in FeSSIF (HPLC after 30 min stirring and centrifugation); format: physicochemical
Experimental: For the solubility study, a quantity of the solid dispersion equivalent to 10.0 mg of Aprepitant was dissolved in a 100ml volumetric flask with dissolution medium of fed state simulated intestinal fluid (FeSSIF) to a concentration of 0.1mg/ml. The solution was magnetically stirred for 30min and before injected in the HPLC it was centrifuged at 4000rpm for 5min. Finally the drug concentration was equated to the drug solubility. Table 1: Solubility of solid dispersion prepared according to example 1
Table 8: Solubilities of solid dispersions prepared by melt mixing

[2] = Dissolution, USP type II apparatus (paddles), 50 rpm, FeSSIF; format: physicochemical
Experimental: The rate and extent of drug dissolution was studied using a USP type II apparatus (paddles) at 50 rpm. The dissolution medium was a FeSSIF with pH 5.0. Table 2: Dissolution results of amorphous solid dispersions for different ratios of API to polymer compared with that of Aprepitant alone. The dissolution rate of the solid dispersions that present the best solubility was studied in USP II apparatus, 50rpm, FeSSIF medium.

[3] = cited from earlier work

SMILES: C[C@@H](O[C@H]1OCCN(Cc2nc(=O)[nH][nH]2)[C@H]1c1ccc(F)cc1)c1cc(C(F)(F)F)cc(C(F)(F)F)c1 [Aprepitant]
- solubility at 30 min ([1]; fed state simulated intestinal fluid (FeSSIF), fessif, thermodynamic from solid, solid dispersions prepared by spray drying, nominal concentration 0.1mg/ml, stirred 30min): 50 µg/mL (≈ 93.6 µM)
- Solubility in FeSSIF ([1]; solid dispersions prepared by melt mixing at the stated temperature): 50 µg/mL (≈ 93.6 µM)
- % release ([2]; 15 min, FeSSIF medium, melt mixed solid dispersions): 17,37%
- % release ([2]; 15 min, FeSSIF pH 5.0, spray dried solid dispersions): 17,37%
- % release ([2]; 30 min, FeSSIF medium, melt mixed solid dispersions): 38,74%
- % release ([2]; 30 min, FeSSIF pH 5.0, spray dried solid dispersions): 38,74%
- % release ([2]; 45 min, FeSSIF medium, melt mixed solid dispersions): 45,34%
- % release ([2]; 45 min, FeSSIF pH 5.0, spray dried solid dispersions): 45,34%
- % release ([2]; 60 min, FeSSIF medium, melt mixed solid dispersions): 47,38%
- % release ([2]; 60 min, FeSSIF pH 5.0, spray dried solid dispersions): 47,38%
- solubility ([3]; in acetonitrile): slightly soluble
- solubility ([3]; in ethanol): sparingly soluble
- solubility ([3]; in isopropyl acetate): sparingly soluble
- solubility ([3]; in water): practically insoluble
